Data on four molecules can be found in patent US8912120B2, “Herbicidal compositions comprising 4-amino-3-chloro-5-fluoro-6-(4-chloro-2-fluoro-3-methoxyphenyl) pyridine-2-carboxylic acid or a derivative thereof and synthetic auxin herbicides” (Dow AgroSciences, LLC., priority 2012, dated 2014).

The subject of one assay is CYPRO. As to the kind of experiment: Example II: in-water applied herbicidal mixtures, weed control in transplanted paddy rice (greenhouse), CYPRO. The assay is classed as in vivo, Cyperus rotundus (purple nutsedge). The following applies: 280 gae/ha; in-water application. The gist of the method:
(§1)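 Rice transplanted (2nd–3rd leaf) into non-perforated mud pots 4 d pre-application; Osmocote 19:6:12 fertiliser. In-water application: pipette injection into aqueous layer, components individually/sequentially. Solvent blank controls; acetone and crop oil concentrate equalised.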

A further assay relates to ECHCG. As to the kind of experiment: Example II: in-water applied herbicidal mixtures, transplanted paddy rice, ECHCG. Particulars: in-water application. The assay is classed as in vivo, Echinochloa crus-galli (barnyardgrass). The gist of the method: as §1
The next assay deals with ECHOR. Kind of assay: Example II: in-water applied herbicidal mixtures, transplanted paddy rice, ECHOR. The assay is classed as in vivo, Echinochloa oryzoides (early watergrass). Particulars: 280 gae/ha; in-water application. In outline: as §1
A further assay relates to LEFCH. As to the kind of experiment: Example II: in-water applied herbicidal mixtures, transplanted paddy rice, LEFCH. Particulars: in-water application. The assay is classed as in vivo, Leptochloa chinensis (Chinese sprangletop). The method, then: (§2) The prepared mud was dispensed in 365 mL aliquots into 16-ounce (oz.) non-perforated plastic pots with a surface area of 86.59 square centimeters (cm^2) leaving a headspace of 3 centimeters (cm) in each pot Mud was allowed to dry overnight prior to planting or transplanting. Rice seeds were planted in Sun Gro MetroMix® 306 planting mixture, which typically has a pH of 6.0 to 6.8 and an organic matter content of about 30 percent, in plastic plug trays. Seedlings at the second or third leaf stage of growth were transplanted into 840 mL of mud contained in 32-oz. non-perforated plastic pots with a surface area of 86.59 cm^2 4 days prior to herbicide application. […] Nutrients were added as Osmocote® (19:6:12, N:P:K^+ minor nutrients) at 2 g per 16-oz. pot and 4 g per 32-oz. pot.
(§3) Applications were made by injecting with a pipetter appropriate amounts of the application solutions, individually and sequentially, into the aqueous layer of the paddy. Control plants were treated in the same manner with the solvent blank. Applications were made so that all treated plant material received the same concentrations of acetone and crop oil concentrate.

Another assay relates to SCPJU. As to the kind of experiment: Example II: in-water applied herbicidal mixtures, transplanted paddy rice, SCPJU. Particulars: in-water application. The assay is classed as in vivo, Schoenoplectus juncoides (Japanese bulrush). The method, then: as §2, §3
The subject of another assay is ELEIN. Kind of assay: Example III: postemergence foliar-applied herbicidal mixtures, weeds common to row crops such as corn and soybeans (greenhouse), ELEIN. Particulars: 14 DAA. The assay is classed as in vivo, Eleusine indica (goosegrass). The method, then:
(§4) The plants were grown for 7-31 days (d) in a greenhouse with an approximate 15 hour (h) photoperiod which was maintained at about 23-29° C. during the day and 22-28° C. during the night.

The subject of the next assay is PANDI. Kind of assay: Example III: postemergence foliar-applied herbicidal mixtures, row crop weeds, PANDI. Particulars: 16 DAA. Format: in vivo, Panicum dichotomiflorum (fall panicum). The method, then: as §4
In the next assay the test system is PANMI. Kind of assay: Example III: postemergence foliar-applied herbicidal mixtures, row crop weeds, PANMI. Particulars: 16 DAA. Format: in vivo, Panicum miliaceum (wild-proso millet). As to the method: as §4
For a further assay, the system named is CENMA. Kind of assay: Example V: postemergence herbicidal activity of mixtures in forage crops, CENMA. The assay is classed as in vivo, Centaurea maculosa (spotted knapweed). Particulars: alone, foliar, approximately 21 days. As to the method:
(§5) Seeds or root cuttings of the desired test plant species were planted in Sun Gro MetroMix® 306 planting mixture, which typically has a pH of 6.0 to 6.8 and an organic matter content of about 30 percent, in plastic pots with a surface area of 126.6 square centimeters (cm^2). […] The plants were grown for 14-60 days in a greenhouse with an approximate 14 hour photoperiod which was maintained at approximately 28° C. during the day and 24° C. during the night.
(§6) Spray solutions of the second herbicide or experimental compound mixtures were prepared by adding the stock solutions to the appropriate amount of dilution solution to form 12 mL spray solution with active ingredients in two-way combinations.

The test system of a further assay is SINAR. As to the kind of experiment: Example V: postemergence herbicidal activity of mixtures in forage crops, SINAR. The assay is classed as in vivo, Sinapis arvensis (wild mustard). The following applies: alone, foliar, approximately 21 days. The gist of the method: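 Plants grown from seed or root cuttings in MetroMix 306 (pH 6.0–6.8) for 14–60 days in greenhouse, ~14 h photoperiod, ~28/24 °C day/night. Foliar spray of two-way mixtures of the second herbicide or experimental compounds applied postemergence.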

The next assay relates to SONAR. As to the kind of experiment: Example V: postemergence herbicidal activity of mixtures in forage crops, SONAR. Format: in vivo, Sonchus arvensis (field sowthistle). The following applies: alone, foliar, approximately 21 days. The method, then: as §5, §6
The test system of a further assay is BRSNN. Kind of assay: Example IV: postemergence foliar-applied herbicidal mixtures, cereal crops, BRSNN. The assay is classed as in vivo, Brassica napus (volunteer canola). Particulars: alone, 3 gai/ha, foliar, 20-22 days. As to the method: (§7) Seeds of the desired test plant species were planted in Sun Gro MetroMix 306 planting mixture, which typically has a pH of 6.0 to 6.8 and an organic matter content of about 30 percent, in plastic pots with a surface area of 103.2 square centimeters (cm^2). […] The plants were grown for 7-36 days in a greenhouse with an approximate 14 hour photoperiod which was maintained at about 18° C. during the day and 17° C. during the night.
(§8) Spray solutions of the second cereal herbicide and experimental compound mixtures were prepared by adding the stock solutions to the appropriate amount of dilution solution to form 12 mL spray solution with active ingredients in two- and three-way combinations.

The subject of a further assay is CIRAR. As to the kind of experiment: Example IV: postemergence foliar-applied herbicidal mixtures, cereal crops, CIRAR. The assay is classed as in vivo, Cirsium arvense (Canada thistle). Particulars: alone, 20-22 days. The method, then: as §7, §8
For another assay, the system named is POLCO. As to the kind of experiment: Example IV: postemergence foliar-applied herbicidal mixtures, cereal crops, POLCO. Format: in vivo, Polygonum convolvulus (wild buckwheat). The following applies: alone, foliar, 20-22 days. The gist of the method:
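Greenhouse plants were grown 7–36 days in potting mix (pH 6.0–6.8) under ~14 h photoperiod at about 18 °C day/17 °C night. Postemergence foliar sprays (12 mL) contained the second cereal herbicide with experimental compound as two- and three-way mixtures.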

The next assay relates to AMARE. As to the kind of experiment: Example IV: postemergence foliar-applied herbicidal mixtures, weed control in cereal crops in the greenhouse, AMARE. Format: in vivo, Amaranthus retroflexus (redroot pigweed). Particulars: alone, 35 gai/ha, 20-22 days. As to the method: as §7, §8
The subject of a further assay is VIOTR. Kind of assay: Example IV: postemergence foliar-applied herbicidal mixtures, cereal crops, VIOTR. The assay is classed as in vivo, Viola tricolor (wild pansy). The following applies: alone, foliar, 20-22 days. As to the method:
as §7, §8

The next assay deals with STEME. As to the kind of experiment: Example IV: postemergence foliar-applied herbicidal mixtures, cereal crops, STEME. The assay is classed as in vivo, Stellaria media (common chickweed). Particulars: alone, 10 gai/ha, 20-22 days. The method, then:
as §7, §8

Molecules are shown by their SMILES. Where a name gives a salt, the structure may show the parent alone.

Turning to `O=C(O)COc1ccc(Cl)cc1Cl` [2,4-D DMA Salt, 2-(2,4-dichlorophenoxy)acetic acid with N-methylmethanamine, reference compound], the “Visual Weed Control (%) - 21 DAA CYPRO Obs” value with CYPRO is listed as 0%. In addition, the “Visual Weed Control (%) - 21 DAA ECHCG Obs” value with ECHCG (140 gae/ha) and with ECHCG (280 gae/ha) was 0% in each case. Moreover, the “Visual Weed Control (%) - 21 DAA ECHOR Obs” value in the assay with ECHOR is given as 15%. Also, the “Visual Weed Control (%) - 21 DAA LEFCH Obs” value was found to be 0% in the assay on LEFCH (140 gae/ha) and 60% in the assay with LEFCH (280 gae/ha). Also, the “Visual Weed Control (%) - 21 DAA SCPJU Obs” value in the assay with SCPJU (140 gae/ha) and in the assay with SCPJU (280 gae/ha) was 0% in each case. Besides, the “Visual Weed Control (%) Obs” value in the assay with ELEIN (52.5 gae/ha) was 0%; in the assay on ELEIN (105 gae/ha) it was 0%; with PANDI (105 gae/ha), 0%; in the assay on PANDI (210 gae/ha), 0%; with PANMI (52.5 gae/ha), 0%; with PANMI (105 gae/ha) it was 10%. In addition, the figures for the “CENMA Obs (observed value)” value in the assay with CENMA (35 gae/ha) and in the assay with CENMA (70 gae/ha) were 30% and 50%, respectively. The “SINAR Obs (observed value)” value with SINAR (35 gae/ha) was determined as 35%; in the assay on SINAR (70 gae/ha), 80%. Further, the “SONAR Obs (observed value)” value with SONAR (35 gae/ha) is reported as 20%; in the assay on SONAR (70 gae/ha) it was 85%.
On to `Nc1cc(Cl)nc(C(=O)O)c1Cl` [Aminopyralid, 4-amino-3,6-dichloro-2-pyridinecarboxylic acid], for which, in the assay on BRSNN, the “BRSNN Ob (observed value)” value was 0%. Besides, in the assay on CIRAR (3 gai/ha), the “CIRAR Ob (observed value)” value amounted to 13%. Also, in the assay with POLCO (3 gai/ha), the “POLCO Ob (observed value)” value was determined as 3%.
Take `Nc1c(Cl)c(F)nc(OCC(=O)O)c1Cl` [Fluroxypyr, 2-[(4-amino-3,5-dichloro-6-fluoro-2-pyridinyl)oxy]acetic acid]: the “AMARE Ob (observed value)” value in the assay on AMARE is recorded as 33%. For the same molecule, the “CIRAR Ob (observed value)” value in the assay with CIRAR (35 gai/ha) is reported as 3%. In the assay with POLCO (35 gai/ha), the “POLCO Ob (observed value)” value came to 23%. Also, the “VIOTR Ob (observed value)” value in the assay on VIOTR (35 gai/ha) is 10%.
Turning to `Nc1c(Cl)c(Cl)nc(C(=O)O)c1Cl` [Picloram, 4-amino-3,5,6-trichloro-2-pyridinecarboxylic acid], the “POLCO Ob (observed value)” value with POLCO (10 gai/ha) was 40%. In the assay on STEME, the “STEME Ob (observed value)” value came out at 0%. Besides, the “VIOTR Ob (observed value)” value in the assay with VIOTR (10 gai/ha) was found to be 3%.
